The values below are quoted from earlier work in patent US20180193334A1, “PHARMACEUTICAL COMPOSITION OF VORTIOXETINE OR SALT THEREOF, AND PREPARATION METHOD THEREFOR” (Changzhou Fangnan Pharmaceuticals, Ltd., priority 2015, published 2018).

≈ marks a conversion by molar mass, not a printed value.

Turning to `Cc1ccc(Sc2ccccc2N2CCNCC2)c(C)c1` [vortioxetine free base], the solubility in water was 100 µg/mL (≈ 335 µM).

`Br.Cc1ccc(Sc2ccccc2N2CCNCC2)c(C)c1` [1-[2-(2,4-methylphenylthio)phenyl] piperazine hydrobromide]: the solubility in water was 1200 µg/mL.
